In patent US20220326218A1, “COMPOSITION AND METHOD FOR INHIBITING BORC COMPLEX TO TREAT CANCERS WITH NF1 DEFICIENCY AND DYSREGULATED RAS SIGNALING” (THE TRUSTEES OF DARTMOUTH COLLEGE, priority 2019, published 2022):

System: PARP
Experiment: Western immunoblotting for PARP
Assay type: cell-based, human
Conditions: U87-MG
Description: U87-MG cells were plated at 500,000 cells/well in 6-well plates and allowed to adhere overnight (Falcon). Medium was removed and replaced with fresh medium containing drugs or compounds for the indicated timepoints. Cells were collected after treatment by washing with PBS, harvested with trypsin plus agitation to detach cells, pelleted in a centrifuge and resuspended in PBS to wash. Cells were transferred to 1.5 mL microcentrifuge tubes, pelleted, and resuspended in RIPA lysis buffer (50 mM Tris pH 8.0, 150 mM NaCl, 1% nonidet P40, 0.5% sodium deoxycholate, and 0.05% SDS) containing 1 mM NaVO4, 1 mM NaF, 1 mM phenylmethylsulfonyl fluoride, 0.1 μg/mL antipain, 1 μM aprotinin, 100 μM benzamidine HCl, 0.1 μg/mL leupeptin, 0.1 μg/mL pepstatin, and 0.1 μg/mL soybean trypsin inhibitor. Protein was quantified using a BCA assay kit (Pierce). 50 μg of protein was prepared in 1× Laemmli sample buffer (50 mM Tris pH 6.8, 0.02% w/v bromophenol blue, 2% w/v SDS, 10% v/v glycerol, 1% v/v beta-mercaptoethanol, 12.5 mM EDTA) and separated by SDS-PAGE on a 4-15% polyacrylamide gradient gel (Bio-Rad). […]

Cn1cnnc1S/C=C/C(=O)c1ccc(F)cc1 [Y102]
PARP western immunoblotting as check of absent caspase-3-mediated apoptosis: confirmed
